Tests used:
NMDAR2C = NMDAR2C (Homo sapiens, UniProt Q14957); assay: Potentiation of [3H]MK-801 binding, NMDAR2C; parameters: species or system rat; settings: NMDAR2C binding profile; for % 1 mM Glycine: relative to 1 mM glycine
NMDAR2A = NMDAR2A (Homo sapiens, UniProt Q12879); assay: Potentiation of [3H]MK-801 binding, NMDAR2A; parameters: species or system rat; settings: NMDAR2A binding profile; for % 1 mM Glycine: relative to 1 mM glycine
Method: (§1) Assays were conducted as described by Moskal et al., “GLYX-13: a monoclonal antibody-derived peptide that acts as an N-rnethyl-D-aspartate receptor modulator,” Neuropharmacology, 49, 1077-87, 2005. The potentiation of [^3H]MK-801 binding (5 nrM; 22.5 Ci/mmol) to well washed rat cortical membranes (200 μg) was measured under non-equilibrium conditions (15 min @ 25° C.) in the presence of increasing concentrations of Compound A.
(§2) Assays were conducted as described above in Example 5, by Moskal et al. (2005).

NMDAR2B = NMDAR2B (Homo sapiens, UniProt Q13224); assay: Potentiation of [3H]MK-801 binding, NMDAR2B; parameters: species or system rat; settings: NMDAR2B binding profile; for % 1 mM Glycine: relative to 1 mM glycine
NMDAR2D = NMDAR2D (Homo sapiens, UniProt O15399); assay: Potentiation of [3H]MK-801 binding, NMDAR2D; parameters: species or system rat; settings: NMDAR2D binding profile; for % 1 mM Glycine: relative to 1 mM glycine
Method: as §1, §2

Sprague Dawley rats = assay: Bennett model of mechanical analgesia (paw withdrawal threshold); assay type: in vivo, rat; settings: 150 mg/kg PO; tested 1 h, 24 hrs and 1 week post-dosing
Method: Bennett G J, Xie Y K, “A peripheral mononeuropathy in rat that produces disorders of pain sensation like those seen in man,” Pain 33:87-107, 1988. […] Vehicle animals receive the surgery and then receive vehicle rather than test compound. Animals were tested 1 hr, 24 h and 1 wk post-test compound or vehicle administration.
Male 2-3 month old Sprague Dawley rats were used. Harlan was the supplier for all studies. Rats were housed in Lucite cages with aspen wood chip bedding, maintained on a 12:12 light:dark cycle (lights on at 5 AM), and given ad libitum access to Purina lab chow (USA) and tap water throughout the study.
Rats were anesthetized using inhaled isoflurane (2.5%). Spared nerve injury surgery was performed as previously described (Bennett and Xie, 1988). An incision (˜1.5 cm in length) was made with a scalpel blade dorsally through skin on the right hindlimb, parallel and posterior to femur. Using a small pointed hemostat, the biceps femoris and gluteus superficialis muscles were separated. Using curved blunt forceps, the common sciatic nerve was isolated and exposed. For the mechanical analgesia studies, the whole sciatic nerve was ligated. Using hemostats/forceps and chromic gut (5-0), the nerve was loosely ligated with a square knot; 3 ligatures, 1 mm apart were placed on the nerve. […] For the thermal analgesia studies, the common peroneal and tibial branches of the sciatic nerve were ligated and cut, and the sural branch was spared. See Decosterd I, Woolf C J, “Spared nerve injury: an animal model of persistent peripheral neuropathic pain,” Pain 87:149-158, 2000. Testing occurred 1-2 weeks post-surgery.
During testing, rats were acclimated to the surface of a suspended wire mesh grid (1 cm×1 cm, with the wire being 0.3 cm in diameter) for 15-20 min. Starting from the smallest, each Von Frey filament was pressed perpendicularly to the plantar surface of the affected (ipsilateral) hindpaw until slightly bent and then held for 6 second. […]

Sequence of NMDAR2D (O15399 28-1336, species assumed, other chains not shown): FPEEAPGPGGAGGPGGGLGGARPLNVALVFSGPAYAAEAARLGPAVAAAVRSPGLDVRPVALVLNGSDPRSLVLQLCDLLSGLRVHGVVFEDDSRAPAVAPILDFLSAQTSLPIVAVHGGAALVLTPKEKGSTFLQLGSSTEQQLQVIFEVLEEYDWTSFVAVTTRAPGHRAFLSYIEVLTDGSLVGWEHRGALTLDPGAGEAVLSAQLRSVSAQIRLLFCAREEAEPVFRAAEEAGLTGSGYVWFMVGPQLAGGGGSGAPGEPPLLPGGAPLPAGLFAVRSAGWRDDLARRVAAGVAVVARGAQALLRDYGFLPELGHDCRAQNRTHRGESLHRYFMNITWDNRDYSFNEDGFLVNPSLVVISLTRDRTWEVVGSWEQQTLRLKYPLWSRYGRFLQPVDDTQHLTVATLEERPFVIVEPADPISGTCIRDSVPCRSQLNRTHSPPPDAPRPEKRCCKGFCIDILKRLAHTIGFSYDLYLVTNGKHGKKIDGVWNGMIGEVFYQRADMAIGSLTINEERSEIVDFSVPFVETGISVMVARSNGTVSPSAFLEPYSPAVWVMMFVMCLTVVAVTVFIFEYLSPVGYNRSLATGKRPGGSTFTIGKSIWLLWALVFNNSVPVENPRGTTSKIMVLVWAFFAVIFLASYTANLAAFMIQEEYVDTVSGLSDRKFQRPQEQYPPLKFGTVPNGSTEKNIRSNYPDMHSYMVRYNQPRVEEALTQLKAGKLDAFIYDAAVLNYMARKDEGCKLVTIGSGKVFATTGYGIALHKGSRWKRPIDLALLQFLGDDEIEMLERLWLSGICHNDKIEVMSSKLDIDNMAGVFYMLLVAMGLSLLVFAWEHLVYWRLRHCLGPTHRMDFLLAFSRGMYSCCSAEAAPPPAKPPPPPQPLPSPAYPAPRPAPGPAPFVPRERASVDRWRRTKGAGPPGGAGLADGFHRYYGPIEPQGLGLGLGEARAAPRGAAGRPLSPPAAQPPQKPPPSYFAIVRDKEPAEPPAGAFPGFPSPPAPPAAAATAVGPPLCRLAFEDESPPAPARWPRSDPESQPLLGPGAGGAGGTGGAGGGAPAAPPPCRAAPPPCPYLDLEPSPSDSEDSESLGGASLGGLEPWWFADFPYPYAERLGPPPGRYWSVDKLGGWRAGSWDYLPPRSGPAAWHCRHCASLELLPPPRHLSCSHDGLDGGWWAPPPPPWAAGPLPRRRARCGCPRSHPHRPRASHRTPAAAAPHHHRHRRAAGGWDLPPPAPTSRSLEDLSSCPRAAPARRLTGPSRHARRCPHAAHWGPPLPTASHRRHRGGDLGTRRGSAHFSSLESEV
Sequence of NMDAR2A (Q12879 23-1464, species assumed, other chains not shown): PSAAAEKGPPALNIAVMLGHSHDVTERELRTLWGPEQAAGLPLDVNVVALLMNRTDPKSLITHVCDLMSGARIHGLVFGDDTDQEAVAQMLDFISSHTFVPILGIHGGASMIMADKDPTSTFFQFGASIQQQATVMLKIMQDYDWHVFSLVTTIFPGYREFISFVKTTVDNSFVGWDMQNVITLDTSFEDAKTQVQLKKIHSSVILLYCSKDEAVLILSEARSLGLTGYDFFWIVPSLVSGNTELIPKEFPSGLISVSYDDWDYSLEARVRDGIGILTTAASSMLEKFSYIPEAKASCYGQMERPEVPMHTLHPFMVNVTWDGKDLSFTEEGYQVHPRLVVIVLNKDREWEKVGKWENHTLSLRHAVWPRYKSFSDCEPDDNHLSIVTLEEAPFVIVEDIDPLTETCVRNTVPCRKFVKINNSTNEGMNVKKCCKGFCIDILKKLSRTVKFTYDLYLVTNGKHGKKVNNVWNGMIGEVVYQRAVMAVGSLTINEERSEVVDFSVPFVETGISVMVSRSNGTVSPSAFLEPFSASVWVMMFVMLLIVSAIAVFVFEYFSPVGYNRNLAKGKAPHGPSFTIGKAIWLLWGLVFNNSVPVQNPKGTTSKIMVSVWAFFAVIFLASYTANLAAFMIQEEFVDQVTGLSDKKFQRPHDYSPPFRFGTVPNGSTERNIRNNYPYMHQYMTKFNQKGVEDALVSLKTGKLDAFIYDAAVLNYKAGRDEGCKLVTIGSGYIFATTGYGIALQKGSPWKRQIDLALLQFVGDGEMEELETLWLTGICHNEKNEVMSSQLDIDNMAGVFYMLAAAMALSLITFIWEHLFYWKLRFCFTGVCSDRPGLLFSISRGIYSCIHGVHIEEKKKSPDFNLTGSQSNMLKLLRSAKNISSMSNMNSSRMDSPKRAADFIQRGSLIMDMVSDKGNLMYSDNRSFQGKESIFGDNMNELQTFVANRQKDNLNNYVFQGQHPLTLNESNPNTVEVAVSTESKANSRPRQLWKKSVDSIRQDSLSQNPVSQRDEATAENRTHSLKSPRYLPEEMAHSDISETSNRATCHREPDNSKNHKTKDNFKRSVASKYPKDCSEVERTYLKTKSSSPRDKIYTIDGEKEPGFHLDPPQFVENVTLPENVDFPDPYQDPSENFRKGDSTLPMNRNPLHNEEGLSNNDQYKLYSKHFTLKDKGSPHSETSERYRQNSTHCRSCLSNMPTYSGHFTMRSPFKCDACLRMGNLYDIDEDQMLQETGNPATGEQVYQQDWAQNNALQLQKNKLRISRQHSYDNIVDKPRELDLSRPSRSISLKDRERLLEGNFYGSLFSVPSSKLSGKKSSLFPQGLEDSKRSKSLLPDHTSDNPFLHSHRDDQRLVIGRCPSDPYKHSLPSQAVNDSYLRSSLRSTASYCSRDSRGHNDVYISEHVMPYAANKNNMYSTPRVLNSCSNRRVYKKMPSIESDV
Sequence of NMDAR2C (Q14957 20-1233, species assumed, other chains not shown): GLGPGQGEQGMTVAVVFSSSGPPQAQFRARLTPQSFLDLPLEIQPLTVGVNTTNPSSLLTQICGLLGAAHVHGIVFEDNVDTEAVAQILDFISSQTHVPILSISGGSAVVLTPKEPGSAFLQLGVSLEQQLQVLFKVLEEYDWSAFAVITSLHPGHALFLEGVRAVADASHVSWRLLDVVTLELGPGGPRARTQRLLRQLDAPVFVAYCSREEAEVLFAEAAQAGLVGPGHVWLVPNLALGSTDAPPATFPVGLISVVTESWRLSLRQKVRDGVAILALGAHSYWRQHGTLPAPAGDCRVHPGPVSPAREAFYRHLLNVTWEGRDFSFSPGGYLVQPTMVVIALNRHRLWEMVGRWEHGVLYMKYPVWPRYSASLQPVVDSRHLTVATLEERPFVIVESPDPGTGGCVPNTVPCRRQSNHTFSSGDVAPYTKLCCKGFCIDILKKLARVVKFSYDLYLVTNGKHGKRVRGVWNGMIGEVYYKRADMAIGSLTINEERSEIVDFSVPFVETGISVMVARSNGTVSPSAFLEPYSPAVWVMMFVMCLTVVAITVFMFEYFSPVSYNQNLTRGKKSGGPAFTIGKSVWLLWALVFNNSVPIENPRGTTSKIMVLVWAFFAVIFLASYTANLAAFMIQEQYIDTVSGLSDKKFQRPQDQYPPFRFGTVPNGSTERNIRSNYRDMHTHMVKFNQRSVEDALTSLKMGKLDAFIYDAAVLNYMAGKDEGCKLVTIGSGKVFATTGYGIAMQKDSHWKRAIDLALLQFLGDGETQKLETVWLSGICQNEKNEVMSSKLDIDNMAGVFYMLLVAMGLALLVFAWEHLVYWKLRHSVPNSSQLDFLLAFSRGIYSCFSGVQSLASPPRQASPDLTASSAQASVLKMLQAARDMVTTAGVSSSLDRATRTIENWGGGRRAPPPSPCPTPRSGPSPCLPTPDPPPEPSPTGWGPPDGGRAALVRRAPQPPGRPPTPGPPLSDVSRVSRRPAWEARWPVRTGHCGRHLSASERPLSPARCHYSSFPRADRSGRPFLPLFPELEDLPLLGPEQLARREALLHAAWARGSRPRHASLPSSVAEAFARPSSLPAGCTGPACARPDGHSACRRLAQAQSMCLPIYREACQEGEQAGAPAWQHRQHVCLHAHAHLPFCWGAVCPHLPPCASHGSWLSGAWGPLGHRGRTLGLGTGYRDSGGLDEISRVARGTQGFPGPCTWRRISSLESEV

| Structure (SMILES) | Conclusion (NMDAR2C) | % 1 mM Glycine (NMDAR2C) [%] | Conclusion (NMDAR2A) | % 1 mM Glycine (NMDAR2A) [%] | Conclusion (NMDAR2B) | % 1 mM Glycine (NMDAR2B) [%] | Conclusion (NMDAR2D) | % 1 mM Glycine (NMDAR2D) [%] | analgesic effect in the Bennett model (Sprague Dawley rats) |
| --- | --- | --- | --- | --- | --- | --- | --- | --- | --- |
| C[C@@H](O)[C@@H](C(N)=O)N1C[C@]2(CCCN2C(=O)OC(C)(C)C)C1=O [Compound W, tert-butyl (R)-2-((2S,3R)-1-amino-3-hydroxy-1-oxobutan-2-yl)-1-oxo-2,5-diazaspiro[3.4]octane-5-carboxylate] | WT2C agonist | 67.5 | WT2A agonist | 18.33 | WT2B agonist | 53.09 | agonist | 66.72 |  |
| C[C@@H](O)[C@@H](C(N)=O)N1C[C@@]2(CCCN2C(=O)OC(C)(C)C)C1=O [Compound X, tert-butyl (S)-2-((2S,3R)-1-amino-3-hydroxy-1-oxobutan-2-yl)-1-oxo-2,5-diazaspiro[3.4]octane-5-carboxylate] | WT2C agonist | 59.73 | WT2A agonist | 41.04 | WT2B agonist | 59.55 | agonist | 93.58 |  |
| CC(C)C(=O)N1CCC[C@]12CN([C@H](C(N)=O)[C@@H](C)O)C2=O [Compound Y, (2S,3R)-3-hydroxy-2-((R)-5-isobutyryl-1-oxo-2,5-diazaspiro[3.4]octan-2-yl)butanamide] | WT2C agonist | 64.24 | WT2A agonist | 61.76 | WT2B agonist | 70.74 | agonist | 54.85 |  |
| CC(C)C(=O)N1CCC[C@@]12CN([C@H](C(N)=O)[C@@H](C)O)C2=O [Compound Z, (2S,3R)-3-hydroxy-2-((S)-5-isobutyryl-1-oxo-2,5-diazaspiro[3.4]octan-2-yl)butanamide] | WT2C agonist | 47.76 | WT2A agonist | 42.5 | WT2B agonist | 70.49 | agonist | 65.32 |  |
| NCC1(CC(=O)O)CCCCC1 [gabapentin, reference compound] |  |  |  |  |  |  |  |  | only produced an analgesic effect 1 h post-dosing |

From patent publication US10196401B2, “Spiro-lactam NMDA receptor modulators and uses thereof” (Aptinyx Inc., priority 2016, dated 2019)
